Source: ChEMBL document CHEMBL1201862, “PubChem BioAssay data set” (2004)
Activity calls are given as the source filed them.

Assays:
Large T antigen = Large T antigen (Simian virus 40, UniProt P03070); format: functional, Betapolyomavirus macacae;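 also: Confirmatory-stage PubChem screen for compounds that inhibit SV40 T antigen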
[1] = decrease of insulin promoter-GFP reporter – imaging, high-content screening, mouse beta cells (AID 1628); format: functional; conditions: MIN6
[2] = NIH3T3 cell viability loss – ATP luminescence, mouse fibroblasts, counter-screen, dose response (AID 2010); format: functional, cell-based;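 also: cells exposed to compound for about 90 hours before reading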
[3] = Trypanosoma cruzi growth suppression in host cells – NIH3T3 host cells, beta-gal luminescence, confirmation (AID 2044); format: functional, cell-based;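 also: intracellular parasites grown in NIH/3T3 mouse fibroblasts as host cells; luminescent beta-galactosidase reporter signal from transgenic T. cruzi replicating inside host cells; inhibitors lower the luminescence signal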
[4] = MIN6 cell viability loss – mouse insulinoma, cytotoxicity control, dose response (AID 2122); format: functional;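 also: confirmatory high-throughput counterscreen run to flag cytotoxic compounds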
[5] = viability of PTEN-deleted HCT116 cells – cell-based, HCT116 PTEN knockout, dose response (AID 1047); format: functional;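 also: HCT116 colon tumor cells with PTEN knocked out; cells exposed to compound for 60 hours before readout; potency for loss of cell viability measured by luminescence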
[6] = viability of HCT116 lacking mutant beta-catenin – cell-based, human colon tumor, dose response (AID 1045); format: functional;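 also: HCT116 colon tumor cells with beta catenin knocked out; cells exposed to compound for 60 hours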
[7] = biological target: DNA dC->dU-editing enzyme APOBEC-3A (Homo sapiens, UniProt P31941); assay: Dose Response confirmation of small molecule APOBEC3A DNA Deaminase Inhibitors via a fluorescence-based single-stranded DNA deaminase assay. [Related pubchem assays (depositor defined):AID493011, AID493024]; format: functional
Sequence of DNA dC->dU-editing enzyme APOBEC-3A (P31941 whole entry): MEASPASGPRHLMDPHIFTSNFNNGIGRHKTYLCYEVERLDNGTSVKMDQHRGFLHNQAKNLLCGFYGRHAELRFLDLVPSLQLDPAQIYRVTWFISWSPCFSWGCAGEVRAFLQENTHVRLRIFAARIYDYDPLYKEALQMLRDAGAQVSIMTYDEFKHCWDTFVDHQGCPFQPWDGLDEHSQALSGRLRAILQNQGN

[8] = biological target: DNA dC->dU-editing enzyme APOBEC-3G (Homo sapiens, UniProt Q9HC16); format: functional;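 also: Dose-response counterscreen measuring inhibition of APOBEC3G DNA deaminase activity, run while confirming APOBEC3A inhibitors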
Sequence of DNA dC->dU-editing enzyme APOBEC-3G (Q9HC16 whole entry): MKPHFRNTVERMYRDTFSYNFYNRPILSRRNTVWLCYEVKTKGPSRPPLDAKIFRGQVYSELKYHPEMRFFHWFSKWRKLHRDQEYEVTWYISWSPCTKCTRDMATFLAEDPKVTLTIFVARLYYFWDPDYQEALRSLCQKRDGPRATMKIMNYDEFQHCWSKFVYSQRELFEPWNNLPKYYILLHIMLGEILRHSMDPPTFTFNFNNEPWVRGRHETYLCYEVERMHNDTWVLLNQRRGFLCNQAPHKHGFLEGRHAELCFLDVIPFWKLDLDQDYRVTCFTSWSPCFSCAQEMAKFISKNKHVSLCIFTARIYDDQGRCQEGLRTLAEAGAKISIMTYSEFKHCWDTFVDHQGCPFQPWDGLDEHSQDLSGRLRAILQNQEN

Cytochrome P450 2D6 = Cytochrome P450 2D6 (Homo sapiens, UniProt P10635);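 also: CYP2D6 member of a cytochrome P450 panel assay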
Sequence of Cytochrome P450 2D6 (P10635 whole entry): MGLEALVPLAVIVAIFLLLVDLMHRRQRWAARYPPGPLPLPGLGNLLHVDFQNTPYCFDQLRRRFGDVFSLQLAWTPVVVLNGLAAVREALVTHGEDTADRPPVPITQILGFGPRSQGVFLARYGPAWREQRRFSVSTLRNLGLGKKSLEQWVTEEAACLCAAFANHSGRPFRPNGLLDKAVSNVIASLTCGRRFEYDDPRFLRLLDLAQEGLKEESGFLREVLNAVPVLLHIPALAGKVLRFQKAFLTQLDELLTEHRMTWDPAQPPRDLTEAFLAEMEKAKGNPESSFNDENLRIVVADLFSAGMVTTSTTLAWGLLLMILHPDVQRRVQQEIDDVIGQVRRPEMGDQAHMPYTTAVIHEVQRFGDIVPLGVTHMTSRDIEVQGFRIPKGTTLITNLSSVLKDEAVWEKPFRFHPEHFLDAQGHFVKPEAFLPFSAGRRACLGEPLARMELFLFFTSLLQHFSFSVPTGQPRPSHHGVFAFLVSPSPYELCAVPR

[9] = luciferase reporter signal suppression in cells – H4 neuroglioma cells, luminescence, dose response (AID 1990); format: functional, cell-based
[10] = alpha-synuclein stem-loop luciferase translation blockers – H4 neuroglioma cells, luminescence, confirmation (AID 1988); format: functional, cell-based
Cytochrome P450 2C19 = Cytochrome P450 2C19 (Homo sapiens, UniProt P33261); assay: Cytochrome panel assay with activity outcomes. Panel member name: p450-cyp2c19 Compounds with AC50 equal or less than 10 uM are considered active; format: functional; conditions: read-out: AC50
Sequence of Cytochrome P450 2C19 (P33261 whole entry): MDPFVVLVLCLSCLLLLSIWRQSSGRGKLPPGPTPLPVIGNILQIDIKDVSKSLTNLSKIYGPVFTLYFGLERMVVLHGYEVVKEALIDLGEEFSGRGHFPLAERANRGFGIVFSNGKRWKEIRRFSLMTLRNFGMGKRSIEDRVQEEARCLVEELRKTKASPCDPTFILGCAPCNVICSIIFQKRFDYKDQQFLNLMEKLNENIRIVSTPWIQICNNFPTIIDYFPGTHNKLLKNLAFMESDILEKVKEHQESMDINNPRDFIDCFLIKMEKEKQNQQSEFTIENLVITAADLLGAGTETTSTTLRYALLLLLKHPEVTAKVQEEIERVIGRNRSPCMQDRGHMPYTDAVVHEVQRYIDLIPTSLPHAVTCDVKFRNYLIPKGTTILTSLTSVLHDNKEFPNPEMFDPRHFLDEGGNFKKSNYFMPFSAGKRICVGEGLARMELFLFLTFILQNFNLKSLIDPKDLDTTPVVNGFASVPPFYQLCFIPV

[11] = Luminescence Cell-Based Dose Response HTS to Identify Inhibitors of 5'UTR Stem-Loop Driven Prion Protein mRNA Translation in H4 Neuroglioblastoma Cells. [Related pubchem assays: 1827 (Project Summary), 1813 (Primary HTS)]; format: functional

Sequence of Large T antigen (P03070 whole entry): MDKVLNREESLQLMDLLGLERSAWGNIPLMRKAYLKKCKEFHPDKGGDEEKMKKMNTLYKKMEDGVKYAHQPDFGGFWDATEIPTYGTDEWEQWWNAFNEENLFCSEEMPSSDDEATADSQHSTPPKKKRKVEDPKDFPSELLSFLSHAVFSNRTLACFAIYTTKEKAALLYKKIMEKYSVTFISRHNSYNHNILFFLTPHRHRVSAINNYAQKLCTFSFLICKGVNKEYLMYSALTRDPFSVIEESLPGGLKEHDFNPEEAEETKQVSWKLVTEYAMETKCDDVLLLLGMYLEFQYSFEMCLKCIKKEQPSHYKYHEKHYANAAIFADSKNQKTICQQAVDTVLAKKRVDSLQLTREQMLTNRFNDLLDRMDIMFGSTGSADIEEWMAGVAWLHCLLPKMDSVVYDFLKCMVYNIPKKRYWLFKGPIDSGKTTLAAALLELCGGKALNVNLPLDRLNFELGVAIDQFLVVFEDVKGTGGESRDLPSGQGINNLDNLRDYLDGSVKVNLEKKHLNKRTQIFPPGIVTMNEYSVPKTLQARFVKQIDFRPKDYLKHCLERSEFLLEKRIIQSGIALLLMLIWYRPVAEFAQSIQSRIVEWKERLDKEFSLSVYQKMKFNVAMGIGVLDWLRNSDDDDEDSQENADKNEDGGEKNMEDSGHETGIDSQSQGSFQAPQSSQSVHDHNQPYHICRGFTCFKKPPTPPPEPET

For `COc1ccc(NCN2C(=O)C3C4C=CC(C4)C3C2=O)cc1` (stereo not drawn), which IC50 (Large T antigen) is on record?
Its IC50 is 23.2 µM (active).

For `CCC(C)C(=O)Nc1nc(C)c(-c2csc(Nc3ccc(Cl)cc3)n2)s1` (stereo not drawn), which IC50 [1] is on record?
Its IC50 is 2.48 µM (active).

What about the EC50 [2] of the same molecule?
The EC50 was > 60 µM (not active).

What about the EC50 [3] of the same molecule?
Its EC50 is 1.75 µM (active).

What about the IC50 [4] of the same molecule?
Its IC50 is 3.05 µM (active).

For `CCC(C)NCC(=O)Nc1ccc(-c2nc3cc(NC(=O)CNC(C)CC)ccc3o2)cc1` (stereo not drawn), which IC50 [1] is on record?
Its IC50 is 2.17 µM (active).

What about the EC50 [5] of the same molecule?
The EC50 was 4.19 µM (active).

What about the EC50 [6] of the same molecule?
Its EC50 is 2.98 µM (active).

And the IC50 [4]?
Its IC50 is 1.66 µM (active).

Which IC50 [7] does the source give for `CCn1c(C)nc2cc(S(=O)(=O)Nc3ccc(C)cc3)ccc21` here?
Its IC50 is 4.42 µM (active).

And the IC50 [8]?
The IC50 was 4.4 µM (active).

Which results are given for `O=C1NC(=O)N(CCC2=CCCCC2)C(=O)/C1=C\Nc1cccc(F)c1`?
AC50 (Cytochrome P450 2D6): inconclusive; EC50 [9]: > 120 µM (not active); EC50 [10]: 41.4 µM (active); AC50 (Cytochrome P450 2C19): 10 µM (inconclusive); EC50 [11]: > 120 µM (not active)

For `CCN1C(NCc2ccc(OC)cc2)=N[C@@H](c2ccccc2)C(C(=O)OC)=C1C`, which IC50 [7] is on record?
Its IC50 is 4.07 µM (active).

What about the IC50 [8] of the same molecule?
Its IC50 is 5.66 µM (active).
